Assay results from patent publication US20230183243A1, “HETEROARYL DERIVATIVES AND PHARMACEUTICAL COMPOSITION COMPRISING SAME AS ACTIVE INGREDIENT” (VORONOI INC., priority 2019, published 2023).
pIC50: −log10 of the molar value.

Assays:
MDA-MB-231 cells = test: Inhibition of proliferation of triple-negative breast cancer cells, CellTiter-Glo; type: cell-based; settings: Homo sapiens, 120 h; MDA-MB-231, cultured for 5 days
Method: Specifically, the following test was performed in order to evaluate the inhibitory activity of the compound according to the present invention against the cell proliferation in triple-negative breast cancer cells (TNBCs).
Cells were seeded in 180 μL of a culture broth at a density of 2,000 to 3,000 cells/well in a white clear bottom 96-well plate (Corning) according to the growth ability of each cell, and then cultured for 24 hours under conditions of 5% CO2 and 37° C. Thereafter, the compound was prepared by diluting a 10 mM stock solution three-fold with 100% DMSO at a total of 12 concentrations so that a peak concentration of the compound was in a range of 10 mM to 0.05 μM, and the diluted compound was then diluted in each cell culture medium so that a final concentration of the compound was in a range of 100 μM to 0.5 nM. 20 μL of a diluted solution diluted with a medium was added to the cell solution in which cells were seeded in the 96-well plate on the previous day so that a final concentration of the diluted solution was in a range of 10 μM to 0.05 nM. Each of the cells was cultured for 5 days. To check cell viability, a mixture provided in a CellTiter-Glo® Luminescent Cell Viability Assay Kit (Promega) was added to each of the cultured cell media, and cultured for another 10 minutes under a condition of 37° C. Then, a degree of luminescence (fluorescence) was measured. A degree of inhibition of the cell growth according to the treatment concentration of each of the compounds was calculated based on the fluorescence of the solvent control cells which were not treated with the compound.

TTK = target: T1, TTK (Homo sapiens, UniProt P33981); test: TTK enzyme activity, ADP-Glo kinase assay; type: biochemical; parameters: purchased SignalChem T20-10G; settings: purified human TTK, ATP 10 μM, 25° C., 2 hours
T1 sequence (P33981 1-857): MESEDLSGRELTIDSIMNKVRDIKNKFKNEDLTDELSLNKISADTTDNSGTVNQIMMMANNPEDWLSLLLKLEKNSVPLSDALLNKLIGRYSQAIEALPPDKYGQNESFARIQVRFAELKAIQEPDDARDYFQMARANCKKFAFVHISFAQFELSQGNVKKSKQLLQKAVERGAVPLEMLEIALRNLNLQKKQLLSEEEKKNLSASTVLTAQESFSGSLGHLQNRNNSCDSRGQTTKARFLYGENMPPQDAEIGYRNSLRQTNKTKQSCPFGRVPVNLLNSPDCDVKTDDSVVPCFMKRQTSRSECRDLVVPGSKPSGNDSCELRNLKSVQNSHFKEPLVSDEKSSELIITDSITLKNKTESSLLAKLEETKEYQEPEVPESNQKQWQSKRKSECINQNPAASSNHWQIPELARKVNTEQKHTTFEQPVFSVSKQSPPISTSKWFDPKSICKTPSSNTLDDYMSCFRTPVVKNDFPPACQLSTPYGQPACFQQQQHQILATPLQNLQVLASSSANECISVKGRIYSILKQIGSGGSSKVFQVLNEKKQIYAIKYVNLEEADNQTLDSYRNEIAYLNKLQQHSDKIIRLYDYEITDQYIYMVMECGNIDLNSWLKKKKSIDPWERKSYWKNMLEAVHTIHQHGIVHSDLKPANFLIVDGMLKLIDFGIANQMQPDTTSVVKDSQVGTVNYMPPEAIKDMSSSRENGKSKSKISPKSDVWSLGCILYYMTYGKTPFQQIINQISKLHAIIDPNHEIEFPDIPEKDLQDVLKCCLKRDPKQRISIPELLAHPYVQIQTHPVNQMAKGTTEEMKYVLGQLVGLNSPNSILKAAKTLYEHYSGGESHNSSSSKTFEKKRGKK
Method: To evaluate an inhibitory activity of the compound according to the present invention against TTK (MPS1), an experiment was performed as follows.
Each of the Example compounds was reacted with a purified human TTK (SignalChem #T20-10G) enzyme to evaluate an ability to inhibit an enzyme using a method as described below. A composition of 40 mM Tris-HCl (pH 7.4), 20 mM MgCl2, 0.5 mg/mL BSA, and 50 μM DTT was used as a reaction buffer, and all reactions of test substances were performed in the reaction buffer. […] In the test, purified ATP (10 μM) and an enzyme substrate (0.2 μg) were reacted with a human TTK (25 ng) enzyme at 25° C. for 2 hours, and the enzyme activity was determined using an in vitro ADP-Glo™ kinase assay (Promega). […] The degree of inhibition of the enzyme activity according to the treatment concentration of each of the compounds was calculated based on the fluorescence of the enzyme activity of the solvent control which was not treated with the compound.

SMILES	GI50 (MDA-MB-231 cells) [nM]	pIC50 (TTK)
COc1cc(-c2ccc(F)nc2)ccc1Nc1nc(NC2CCCC2)c2c(C#N)c[nH]c2n1 [Example 42, 4-(cyclopentylamino)-2-((4-(6-fluoropyridin-3-yl)-2-methoxyphenyl)amino)-7H-pyrrolo[2,3-d] pyrimidine-5-carbonitrile]	< 100	6.70 to 7.30
COc1cc(-c2cnn(C)c2)ccc1Nc1nc(NC2CCCC2)c2c(C#N)c[nH]c2n1 [Example 43, 4-(cyclopentylamino)-2-((2-methoxy-4-(1-methyl-1H-pyrazol-4-yl)phenyl)amino)-7H-pyrrolo[2,3-d] pyrimidine-5-carbonitrile]	< 100	> 7.30
COc1cc(-c2c(C)noc2C)ccc1Nc1nc(NC2CCCC2)c2c(C#N)c[nH]c2n1 [Example 44, 4-(cyclopentylamino)-2-((4-(3,5-dimethylisoxazol-4-yl)-2-methoxyphenyl)amino)-7H-pyrrolo[2,3-d] pyrimidine-5-carbonitrile]	< 100	6.70 to 7.30
CCOc1cc(-c2nncn2C)ccc1Nc1nc(C2CC2)c2c(C#N)c[nH]c2n1 [Example 46, 4-cyclopropyl-2-((2-ethoxy-4-(4-methyl-4H-1,2,4-triazol-3-yl)phenyl)amino)-7H-pyrrolo[2,3-d] pyrimidine-5-carbonitrile]	> 1000	6.00 to 6.70
CNc1nc(Nc2ccc(N3CCCC3=O)cc2OC)nc2[nH]cc(C(F)(F)F)c12 [Example 51, l-(3-methoxy-4-((4-(methylamino)-5-(trifluoromethyl)-7H-pyrrolo[2,3-d]pyrimidin-2-yl)amino)phenyl) pyrrolidin-2-one]	> 1000	6.70 to 7.30
COc1cc(N2CCCC2=O)ccc1Nc1nc(NC(C)C)c2c(C#N)c[nH]c2n1 [Example 65, 4-(isopropylamino)-2-((2-methoxy-4-(2-oxopyrrolidin-1-yl)phenyl)amino)-7H-pyrrolo[2,3-d] pyrimidine-5-carbonitrile]	< 100	> 7.30
COc1cc(N2CCCC2=O)ccc1Nc1nc(NCC(C)C)c2c(C#N)c[nH]c2n1 [Example 66, 4-(isobutylamino)-2-((2-methoxy-4-(2-oxopyrrolidin-1-yl)phenyl)amino)-7H-pyrrolo[2,3-d] pyrimidine-5-carbonitrile]	< 100	> 7.30
CCCCNc1nc(Nc2ccc(N3CCCC3=O)cc2OC)nc2[nH]cc(C#N)c12 [Example 67, 4-(butylamino)-2-((2-methoxy-4-(2-oxopyrrolidin-1-yl)phenyl)amino)-7H-pyrrolo[2,3-d] pyrimidine-5-carbonitrile]	< 100	> 7.30
COc1cc(N2CCCC2=O)ccc1Nc1nc(NC2CCC2)c2c(C#N)c[nH]c2n1 [Example 69, 4-(cyclobutylamino)-2-((2-methoxy-4-(2-oxopyrrolidin-1-yl)phenyl)amino)-7H-pyrrolo[2,3-d] pyrimidine-5-carbonitrile]	> 1000	> 7.30
C[C@@H](Oc1cc(C(=O)N(C)C)ccc1Nc1nc(O[C@H]2CC[C@@](C)(O)CC2)c2c(Cl)c[nH]c2n1)C(F)(F)F [Example 86, 4-((5-chloro-4-(((1s,4S)-4-hydroxy-4-methylcyclohexyl)oxy)-7H-pyrrolo[2,3-d]pyrimidin-2-yl)amino)-N,N-dimethyl-3-(((R)-1,1,1-trifluoropropan-2-yl)oxy)benzamide]	< 100	> 7.30

More lines, now with the values ahead:

GI50 (MDA-MB-231 cells) [nM]	pIC50 (TTK)	SMILES
> 1000	> 7.30	COc1cc(N2CCCC2=O)ccc1Nc1nc(NCC2CCC2)c2c(C#N)c[nH]c2n1 [Example 70, 4-((cyclobutylmethyl)amino)-2-((2-methoxy-4-(2-oxopyrrolidin-1-yl)phenyl)amino)-7H-pyrrolo[2,3-d] pyrimidine-5-carbonitrile]
100 to 1000	> 7.30	COCC(C)(C)Nc1nc(Nc2ccc(N3CCCC3=O)cc2OC)nc2[nH]cc(C#N)c12 [Example 72, 4-((1-methoxy-2-methylpropan-2-yl)amino)-2-((2-methoxy-4-(2-oxopyrrolidin-1-yl)phenyl)amino)-7H-pyrrolo[2,3-d] pyrimidine-5-carbonitrile]
< 100	> 7.30	COc1cc(N2CCCC2=O)ccc1Nc1nc(NC2COC2)c2c(C#N)c[nH]c2n1 [Example 73, 2-((2-methoxy-4-(2-oxopyrrolidin-1-yl)phenyl)amino)-4-(oxetan-3-ylamino)-7H-pyrrolo[2,3-d] pyrimidine-5-carbonitrile]
< 100	> 7.30	CNc1nc(Nc2ccc(-c3ccnn3C)c3c2OCCO3)nc2[nH]cc(C#N)c12 [Example 75, 2-((8-(l-methyl-1H-pyrazol-5-yl)-2,3-dihydrobenzo[b][1,4]dioxin-5-yl)amino)-4-(methylamino)-1H-pyrrolo[2,3-d] pyrimidine-5-carbonitrile]
< 100	> 7.30	CC(C)Nc1nc(Nc2ccc(-c3ccnn3C)c3c2OCCO3)nc2[nH]cc(C#N)c12 [Example 76, 4-(isopropylamino)-2-((8-(1-methyl-1H-pyrazol-5-yl)-2,3-dihydrobenzo[b][1,4]dioxin-5-yl)amino)-7H-pyrrolo[2,3-d] pyrimidine-5-carbonitrile]
< 100	> 7.30	N#Cc1c[nH]c2nc(Nc3ccc(N4CCCC4=O)c4c3OCCO4)nc(NC3CCCCC3)c12 [Example 79, 4-(cyclohexylamino)-2-((8-(2-oxopyrrolidin-1-yl)-2,3-dihydrobenzo[b][1,4]dioxin-5-yl)amino)-7H-pyrrolo[2,3-d] pyrimidine-5-carbonitrile]
< 100	> 7.30	Cn1nccc1-c1ccc(Nc2nc(NC3CCC3)c3c(C#N)c[nH]c3n2)c2c1OCCO2 [Example 82, 4-(cyclobutylamino)-2-((8-(1-methyl-1H-pyrazol-5-yl)-2,3-dihydrobenzo[b][1,4]dioxin-5-yl)amino)-7H-pyrrolo[2,3-d] pyrimidine-5-carbonitrile]
